Results from patent publication US10125134B2 (Mirati Therapeutics, Inc., priority 2016, dated 2018).
Structures can show the parent of a compound that is named as a salt. Where two headings read alike, the source gives them in different places.

What was measured:
KRas G12C = KRas G12C (Homo sapiens, UniProt P01116, C118S/C51S/C80L/G12C); test: KRas G12C Modification Assay (LCMS detection of covalent adduct); assay type: binding
Method in brief: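 Covalent modification was read by reverse-phase LC/MS of intact protein after compound exposure, each reaction stopped at its time point with 25 mM acetic acid. Unmodified-protein signal, taken as percent of total, was normalised to untreated protein and reported as POC.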

[1] = tested on: NCI-H358 cells (express KRas G12C), Phospho-ERK; test: Cellular inhibition of KRas G12C: Phospho-ERK in NCI-H358 cells; assay type: cell-based; settings: pERK(Thr202/Tyr204) normalized with GAPDH, NCI-H358 cells, 3 hours, read-out: IC50
Method in brief: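 IC50 derived by 4-parameter fit of GAPDH-normalized pERK(Thr202/Tyr204) signal, as percent of DMSO control. Signal came from in-cell immunodetection with infrared secondaries after 3 h compound exposure of KRas G12C NCI-H358 cells at 0.5% DMSO.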

[2] = normalized percent of control, tested at 5 μM concentration for 3 hours

Structure (SMILES) | POC (KRas G12C; [2]) | IC50 ([1]; Homo sapiens, NCI-H358, 3 h) [µM] | also measured
C=CC(=O)N1CCN(c2nc(OC[C@@H]3CCCN3C)nc3c2CCN(c2ccccc2CC(F)(F)F)C3)CC1CC#N (stereo partly drawn) [Example 374, 2-(1-acryloyl-4-(2-(((S)-1-methylpyrrolidin-2-yl)methoxy)-7-(2-(2,2,2-trifluoroethyl)phenyl)-5,6,7,8-tetrahydropyrido[3,4-d]pyrimidin-4-yl)piperazin-2-yl)acetonitrile] | C (“C”>50% POC) |  | IC50 [1]: > 1 µM
C=CC(=O)N1C[C@H](C)N(c2nc(OC[C@@H]3CCCN3C)nc3c2CCN(c2cc(O)cc4ccccc24)C3)C[C@H]1C [Example 336, 1-[(2R,5S)-4-[7-(3-hydroxy-1-naphthyl)-2-[[(2S)-1-methylpyrrolidin-2-yl]methoxy]-6,8-dihydro-5H-pyrido[3,4-d]pyrimidin-4-yl]-2,5-dimethyl-piperazin-1-yl]prop-2-en-1-one] | C (“C”>50% POC) | 0.0001 to 1 | 
CN(C)C/C=C/C(=O)N1CCN(c2nc(OC[C@@H]3CCCN3C)nc3c2CCN(c2cccc(Cl)c2C(F)(F)F)C3)C[C@@H]1CC#N [Example 426, 2-((S)-4-(7-(3-chloro-2-(trifluoromethyl)phenyl)-2-(((S)-1-methylpyrrolidin-2-yl)methoxy)-5,6,7,8-tetrahydropyrido[3,4-d]pyrimidin-4-yl)-1-((E)-4-(dimethylamino)but-2-enoyl)piperazin-2-yl)acetonitrile] | C (“C”>50% POC) | 0.0001 to 1 | 
C/C=C/C(=O)N1CCN(c2nc(OC[C@@H]3CCCN3C)nc3c2CCN(c2cccc4ccccc24)C3)CC1CC#N (stereo partly drawn) [Example 263, 2-[1-[(E)-but-2-enoyl]-4-[2-[[(2S)-1-methylpyrrolidin-2-yl]methoxy]-7-(1-naphthyl)-6,8-dihydro-5H-pyrido[3,4-d]pyrimidin-4-yl]piperazin-2-yl]acetonitrile] | C (“C”>50% POC) | 0.0001 to 1 | 
C=CC(=O)N1CCN(c2nc(OCC(CO)N(C)C)nc3c2CCN(c2cc(O)cc4ccccc24)C3)CC1 (stereo not drawn) [Example 55, 1-(4-(2-(2-(dimethylamino)-3-hydroxypropoxy)-7-(3-hydroxynaphthalen-1-yl)-5,6,7,8-tetrahydropyrido[3,4-d]pyrimidin-4-yl)piperazin-1-yl)prop-2-en-1-one] | C (“C”>50% POC) | 0.0001 to 1 | 
C=CC(=O)N1CCN(c2nc(OCCN3CCC(F)(F)CC3)nc3c2CCN(c2cc(O)cc4ccccc24)C3)CC1 [Example 109, 1-(4-(2-(2-(4,4-difluoropiperidin-1-yl)ethoxy)-7-(3-hydroxynaphthalen-1-yl)-5,6,7,8-tetrahydropyrido[3,4-d]pyrimidin-4-yl)piperazin-1-yl)prop-2-en-1-one] | C (“C”>50% POC) | > 1 | 
C=CC(=O)N1CCN(c2nc(OC[C@@H]3C[C@@H](F)CN3C)nc3c2CCN(c2cccc4ccccc24)C3)C[C@@H]1CC#N [Example 306, 2-[(2S)-4-[2-[[(2S,4R)-4-fluoro-1-methyl-pyrrolidin-2-yl]methoxy]-7-(1-naphthyl)-6,8-dihydro-5H-pyrido[3,4-d]pyrimidin-4-yl]-1-prop-2-enoyl-piperazin-2-yl]acetonitrile] | C (“C”>50% POC) | 0.0001 to 1 | 
C=CC(=O)N1CCN(c2nc(OCCN3CCN(C(C)=O)CC3)nc3c2CCN(c2cc(O)cc4ccccc24)C3)CC1 [Example 37, 1-(4-(2-(2-(4-acetylpiperazin-1-yl)ethoxy)-7-(3-hydroxynaphthalen-1-yl)-5,6,7,8-tetrahydropyrido[3,4-d]pyrimidin-4-yl)piperazin-1-yl)prop-2-en-1-one] | C (“C”>50% POC) | > 1 | 
C=CC(=O)N1CCN(c2nc(OC[C@@H]3C[C@@H](OC)CN3C)nc3c2CCN(c2cccc4ccccc24)C3)C[C@@H]1CC#N [Example 327, 2-((S)-1-acryloyl-4-(2-(((2S,4R)-4-methoxy-1-methylpyrrolidin-2-yl)methoxy)-7-(naphthalen-1-yl)-5,6,7,8-tetrahydropyrido[3,4-d]pyrimidin-4-yl)piperazin-2-yl)acetonitrile] | C (“C”>50% POC) | 0.0001 to 1 | 
C=CC(=O)N1CCN(c2nc(OCCc3ccccn3)nc3c2CCN(c2cc(O)cc4ccccc24)C3)CC1 [Example 126, 1-(4-(7-(3-hydroxynaphthalen-1-yl)-2-(2-(pyridin-2-yl)ethoxy)-5,6,7,8-tetrahydropyrido[3,4-d]pyrimidin-4-yl)piperazin 1-yl)prop-2-en-1-one trifluoroacetate] | C (“C”>50% POC) | > 1 | 
C=CC(=O)N1CCN(c2nc(OC[C@@H]3CCCN3C)nc3c2CCN(c2cccc(C)c2C)C3)C[C@@H]1CC#N [Example 393, 2-((S)-1-acryloyl-4-(7-(2,3-dimethylphenyl)-2-(((S)-1-methylpyrrolidin-2-yl)methoxy)-5,6,7,8-tetrahydropyrido[3,4-d]pyrimidin-4-yl)piperazin-2-yl)acetonitrile] | C (“C”>50% POC) | 0.0001 to 1 | 
C=CC(=O)N1CCN(c2nc(OC[C@H]3CCCN3C)nc3c2CCN(c2ccccc2C(F)(F)F)C3)CC1CC#N (stereo partly drawn) [Example 299, 2-[4-[2-[[(2R)-1-methylpyrrolidin-2-yl]methoxy]-7-[2-(trifluoromethyl)phenyl]-6,8-dihydro-5H-pyrido[3,4-d]pyrimidin-4-yl]-1-prop-2-enoyl-piperazin-2-yl]acetonitrile] | C (“C”>50% POC) |  | IC50 [1]: 0.0001 to 1 µM
C=CC(=O)N1CCN(c2nc(OC[C@@H]3CCCN3C)nc3c2CCN(c2nncc4ccccc24)C3)C[C@@H]1CC#N [Example 430, 2-((S)-1-acryloyl-4-(2-(((S)-1-methylpyrrolidin-2-yl)methoxy)-7-(phthalazin-1-yl)-5,6,7,8-tetrahydropyrido[3,4-d]pyrimidin-4-yl)piperazin-2-yl)acetonitrile] | C (“C”>50% POC) | > 1 | 
C=CC(=O)N1CCN(c2nc(OC[C@@H]3C[C@@H](O)CN3C)nc3c2CCN(c2ccccc2C(F)(F)F)C3)CC1CC#N (stereo partly drawn) [Example 312, 2-[4-[2-[[(2S,4R)-4-hydroxy-1-methyl-pyrrolidin-2-yl]methoxy]-7-[2-(trifluoromethyl)phenyl]-6,8-dihydro-5H-pyrido[3,4-d]pyrimidin-4-yl]-1-prop-2-enoyl-piperazin-2-yl]acetonitrile] | C (“C”>50% POC) | 0.0001 to 1 | 
C=CC(=O)N1CCN(c2nc(OC[C@@H]3CCCN3C)nc3c2CCN(c2ccnc4ccccc24)C3)CC1CC#N (stereo partly drawn) [Example 278, 2-(1-acryloyl-4-(2-(((S)-1-methylpyrrolidin-2-yl)methoxy)-7-(quinolin-4-yl)-5,6,7,8-tetrahydropyrido[3,4-d]pyrimidin-4-yl)piperazin-2-yl)acetonitrile] |  |  | POC (KRas G12C; normalized percent of control, tested at 5 μM concentration for 3 hours, 5 µM): C (“C”>50% POC); IC50 [1]: 0.0001 to 1 µM
C=CC(=O)N1CCN(c2nc(N3CCC(N(C)C)C3)nc3c2CCN(c2cc(O)cc4ccccc24)C3)CC1 (stereo not drawn) [Example 13, 1-(4-(2-(3-(dimethylamino)pyrrolidin-1-yl)-7-(3-hydroxynaphthalen-1-yl)-5,6,7,8-tetrahydropyrido[3,4-d]pyrimidin-4-yl)piperazin-1-yl)prop-2-en-1-one] | C (“C”>50% POC) | > 1 | 
C=CC(=O)N1CCN(c2nc(OC[C@@H]3C[C@@H](F)CN3C)nc3c2CCN(c2cc(OC)cc4ccccc24)C3)CC1 [Example 355, 1-[4-[2-[[(2S,4R)-4-fluoro-1-methyl-pyrrolidin-2-yl]methoxy]-7-(3-methoxy-1-naphthyl)-6,8-dihydro-5H-pyrido[3,4-d]pyrimidin-4-yl]piperazin-1-yl]prop-2-en-1-one] | A (“A”≤25% POC) | > 1 | 
C=CC(=O)N1CCN(c2nc(OC[C@@H]3CCCN3C)nc3c2CCN(c2c(C)ccc4[nH]ncc24)C3)CC1 [Example 155, (S)-1-(4-(7-(5-methyl-1H-indazol-4-yl)-2-((1-methylpyrrolidin-2-yl)methoxy)-5,6,7,8-tetrahydropyrido[3,4-d]pyrimidin-4-yl)piperazin-1-yl)prop-2-en-1-one] |  |  | POC (KRas G12C; 5 µM): C (key: “A”≤25% POC; “B”>25% POC−≤50% POC; “C”>50% POC); IC50 ([1]; Homo sapiens): 0.0001 to 1 µM
C=CC(=O)N1CCN(c2nc(OCCCO)nc3c2CCN(c2cc(O)cc4ccccc24)C3)CC1 [Example 184, 1-[4-[7-(3-hydroxy-1-naphthyl)-2-(3-hydroxypropoxy)-6,8-dihydro-5H-pyrido[3,4-d]pyrimidin-4-yl]piperazin-1-yl]prop-2-en-1-one] | C (“C”>50% POC) | > 1 | 
C=CC(=O)N1CCN(c2nc(OC[C@@H]3C[C@@H](F)CN3C)nc3c2CCN(c2cncc(F)c2C(F)(F)F)C3)C[C@@H]1CC#N [Example 384, 2-((S)-1-acryloyl-4-(2-(((2S,4R)-4-fluoro-1-methylpyrrolidin-2-yl)methoxy)-7-(5-fluoro-4-(trifluoromethyl)pyridin-3-yl)-5,6,7,8-tetrahydropyrido[3,4-d]pyrimidin-4-yl)piperazin-2-yl)acetonitrile] | C (“C”>50% POC) |  | IC50 ([1]; Homo sapiens): 0.0001 to 1 µM
C=CC(=O)N1CCN(c2nc(OC[C@@H]3COCCN3C)nc3c2CCN(c2cccc4ccccc24)C3)CC1CC#N (stereo partly drawn) [Example 443, 2-(1-Acryloyl-4-(2-(((S)-4-methylmorpholin-3-yl)methoxy)-7-(naphthalen-1-yl)-5,6,7,8-tetrahydropyrido[3,4-d]pyrimidin-4-yl)piperazin-2-yl)acetonitrile] | C (“C”>50% POC) |  | IC50 [1]: 0.0001 to 1 µM
